Experimental data published in patent publication EP0261693A1, “Treated lipid regulator” (WARNER-LAMBERT COMPANY, priority 1986, dated 1988).
Converted amounts (≈) assume the structure as drawn. Like-named read-outs stand apart in the source and are kept apart here.

Assay: Concentration (solubility) of gemfibrozil in buffer, from absorbance at 280 nm
Type: physicochemical
Conditions: aqueous buffer, excess gemfibrozil agitated overnight at room temperature, filtered, read-out: concentration of gemfibrozil in each buffer
Experimental: Gemfibrozil solutions were prepared in 0.05 M acetate buffer, pH 4.5, and 0.05 M phosphate buffer, pH 6.0 and 7.5 as follows: • Gemfibrozil solutions were prepared by adding an excess of gemfibrozil to the desired volume of buffer and agitating overnight on a shaker at room temperature. The resulting suspension was vacuum filtered. Gemfibrozil concentration was determined from absorbance at 280 nm, using [formula]
Ultraviolet absorbance measurements were obtained on a Beckman DU-7 spectrophotometer.
The concentration of gemfibrozil in each buffer, determined from absorbance at 280 nm was: pH 4.5, 0.014 mg/ml; pH 6.0, 0.150 mg/ml; pH 7.5, 1.711 mg/ml. Cholestyramine (10 mg) was added to 20 ml of each gemfibrozil solution and the mixtures were agitated for 2 hours. The mixtures were filtered and the concentration of unboud gemfibrozil was determined.

solubility thermodynamic (0.05 M acetate buffer, pH 4.5): 14 µg/mL (≈ 55.9 µM)
solubility thermodynamic (0.05 M phosphate buffer, pH 6.0): 150 µg/mL (≈ 599 µM)
solubility thermodynamic (0.05 M phosphate buffer, pH 7.5): 1710 µg/mL (≈ 6830 µM)
Structure (SMILES): Cc1ccc(C)c(OCCCC(C)(C)C(=O)O)c1 [gemfibrozil]
